# From article PMC4440778, “Structure-Activity Relationship and Mode of Action of a Frog Secreted Antibacterial Peptide B1CTcu5 Using Synthetically and Modularly Modified or Deleted (SMMD) Peptides” (PLoS ONE, 2015)
# Where a SMILES comes first, the peptide text is derived from it. Bridges are numbered along the chain shown (N, C = ends). Where no end group is shown, it is not given here. [ ]: non-standard residue; d: D form.
# Assays:
# P. aeruginosa ATCC 27853 = details: ATCC 27853, 24 h
# Procedure: (§2) Bacterial cultures were grown in Luria Bertani broth (Hi-media) by overnight incubation at 37°C with constant shaking. Microbial cultures having 10^6 CFU/ml were made from OD 0.6 culture. Respective peptide stock concentration (1mg/ml) were prepared in sterile water and diluted in LB broth to make concentrations ranging from 1–200 μg/ml. Bacterial culture (50 μl) was treated with 50 μl of individual peptide amide solution of various concentrations and incubated for 24 h at 37°C with constant shaking in a 96 well microtitre plate. […] The minimum inhibitory concentration (MIC) was taken as the dose at which 100% of growth inhibition was observed and was calculated from the graph. MIC was calculated from independent experiments performed in triplicate.
# [1] = test system: human embryonic kidney (HEK) cells; format: cell-based
# Procedure: (§1) Cytotoxicity of the peptides against human embryonic kidney (HEK) cells, skin cancer cells (A431) and PBMCs were evaluated by 3-[4, 5-dimethylthiazol-2-yl]-2, 5-diphenyl tetrazolium bromide (MTT) assay. Peptide solution prepared in less than 0.2% DMSO (10–100 μg/ml) was treated with initially seeded 10,000 cells per well for HEK and A431 cells. To assess peptide cytotoxicity in PBMCs, MTT assay was performed by adding different concentrations of the respective peptides to 96 well plate containing 40,000 PBMCs per well, in triplicate. The conversion of MTT into […] was determined by measuring the absorbance at 570 nm.
# [2] = test system: V. cholerae (clinical isolates); details: 24 h
# Procedure: as §2
# S. aureus ATCC 9542 = details: ATCC 9542, 24 h
# Procedure: as §2
# E. coli MG 1655 = details: MG 1655, 24 h
# Procedure: as §2
# PBMCs = format: cell-based, human
# Procedure: Peripheral blood mononuclear cells (PBMCs) were isolated from heparanised blood of healthy individuals. Five milliliter of blood was diluted with PBS (pH 7.4), and layered above 5 ml of histopaque and centrifuged at 1200 rpm for 30 min at room temperature. The upper layer was discarded, and the interphase containing PBMCs were carefully withdrawn and washed with PBS. It was centrifuged at 1500 rpm at room temperature for 10 min, the pellets were resuspended in RPMI medium and the cells were counted.
# as §1
# skin cancer cells (A431) = format: cell-based, human
# Procedure: as §1
# B. coagulans ATCC 7050 = details: ATCC 7050, 24 h
# Procedure: as §2
# B. subtilis MTCC 14416 = details: MTCC 14416, 24 h
# Procedure: as §2
Compound,MIC (P. aeruginosa ATCC 27853) [µg/mL],CC 50 [1] [µg/mL],MIC [2] [µg/mL],MIC (S. aureus ATCC 9542) [µg/mL],MIC (E. coli MG 1655) [µg/mL],CC 50 (PBMCs) [µg/mL],CC 50 (skin cancer cells (A431)) [µg/mL],MIC (B. coagulans ATCC 7050) [µg/mL],MIC (B. subtilis MTCC 14416) [µg/mL]
CC[C@H](C)[C@@H]1NC(=O)[C@H](CCCCN)NC(=O)[C@@H](NC(=O)[C@H](CC(C)C)NC(=O)[C@@H](NC(=O)[C@H](CCC(N)=O)NC(=O)[C@@H]2CCCN2C(=O)[C@H](CC(C)C)NC(=O)[C@H](Cc2ccccc2)NC(=O)[C@H](CC(N)=O)NC(=O)[C@H](C)NC(=O)[C@H](C)NC(=O)[C@H](CC(C)C)NC(=O)CNC(=O)[C@H](C)NC(=O)[C@@H](NC(=O)[C@@H](N)CCCCN)[C@@H](C)CC)[C@@H](C)CC)CSSC[C@@H](C(N)=O)NC(=O)[C@H](CCCCN)NC(=O)[C@H](CCCNC(=N)N)NC(=O)[C@H](C)NC1=O [B1CTcu5K] (H-KIAGLAANFLPQILCKIARKC-NH2; disulfide 15-21),>100,>100,25,12.5,25,>100,>100,12.5,100
CC[C@@H](C)[C@@H](NC(=O)[C@H](N)CC(C)C)C(=O)N[C@H](C)C(=O)NCC(=O)N[C@H](CC(C)C)C(=O)N[C@H](C)C(=O)N[C@H](C)C(=O)N[C@H](CC(N)=O)C(=O)N[C@H](Cc1ccccc1)C(=O)N[C@H](CC(C)C)C(=O)N1CCC[C@@H]1C(=O)N[C@H](CCC(N)=O)C(=O)N[C@@H](C(=O)N[C@H](CC(C)C)C(=O)N[C@@H]1CSSC[C@H](C(N)=O)NC(=O)[C@@H](CCCCN)NC(=O)[C@@H](CCCNC(=N)N)NC(=O)[C@@H](C)NC(=O)[C@@H]([C@H](C)CC)NC(=O)[C@@H](CCCCN)NC1=O)[C@H](C)CC [DB1CTcu5] (H-[dL][dI][dA]G[dL][dA][dA][dN][dF][dL][dP][dQ][dI][dL][dC][dK][dI][dA][dR][dK][dC]-NH2; disulfide 15-21),>100,>100,,50,25,71.4 ± 2.3,>100,15,50
CC[C@H](C)[C@@H]1NC(=O)[C@H](CCCCN)NC(=O)[C@@H](NC(=O)[C@H](CC(C)C)NC(=O)[C@@H](NC(=O)[C@H](CCC(N)=O)NC(=O)[C@@H]2CCCN2C(=O)[C@H](CC(C)C)NC(=O)[C@H](Cc2ccccc2)NC(=O)[C@H](CC(N)=O)NC(=O)[C@H](C)NC(=O)[C@H](C)NC(=O)[C@@H](N)CC(C)C)[C@@H](C)CC)CSSC[C@@H](C(N)=O)NC(=O)[C@H](CCCCN)NC(=O)[C@H](CCCNC(=N)N)NC(=O)[C@H](C)NC1=O [B1CTcu5-LIAG] (H-LAANFLPQILCKIARKC-NH2; disulfide 11-17),>100,>100,12.5,6.25,12.5,>100,>100,25,50
CC[C@H](C)[C@@H]1NC(=O)[C@H](CCCCN)NC(=O)[C@@H](NC(=O)[C@H](CC(C)C)NC(=O)[C@@H](NC(=O)[C@H](CCC(N)=O)NC(=O)[C@@H]2CCCN2C(=O)[C@H](CC(C)C)NC(=O)[C@H](Cc2ccccc2)NC(=O)[C@H](CC(N)=O)NC(=O)[C@H](C)NC(=O)[C@H](C)NC(=O)[C@H](CC(C)C)NC(=O)CNC(=O)[C@H](C)NC(=O)[C@@H](NC(=O)[C@@H](N)CCCNC(=N)N)[C@@H](C)CC)[C@@H](C)CC)CSSC[C@@H](C(N)=O)NC(=O)[C@H](CCCCN)NC(=O)[C@H](CCCNC(=N)N)NC(=O)[C@H](C)NC1=O [B1CTcu5R] (H-RIAGLAANFLPQILCKIARKC-NH2; disulfide 15-21),>100,>100,12.5,25,25,96.1 ± 1.22,>100,12.5,50
CC[C@H](C)[C@@H]1NC(=O)[C@H](CCCCN)NC(=O)[C@@H](NC(=O)[C@H](CC(C)C)NC(=O)[C@@H](NC(=O)[C@H](CCC(N)=O)NC(=O)[C@@H]2CCCN2C(=O)[C@H](CC(C)C)NC(=O)[C@H](Cc2ccccc2)NC(=O)[C@H](CC(N)=O)NC(=O)[C@H](C)NC(=O)[C@H](C)NC(=O)[C@H](CC(C)C)NC(=O)CNC(=O)[C@H](C)NC(=O)[C@@H](NC(=O)[C@@H](N)Cc2c[nH]c3ccccc23)[C@@H](C)CC)[C@@H](C)CC)CSSC[C@@H](C(N)=O)NC(=O)[C@H](CCCCN)NC(=O)[C@H](CCCNC(=N)N)NC(=O)[C@H](C)NC1=O [B1CTcu5W] (H-WIAGLAANFLPQILCKIARKC-NH2; disulfide 15-21),>100,>100,25,12.5,100,74.5 ± 2.44,>100,12.5,50
LIAGLAANFLPQILCKIARK-NH2 [B1CTcu5-C],>100,,50,50,25,,,25,50
CC[C@H](C)[C@@H]1NC(=O)[C@H](CCCCN)NC(=O)[C@@H](NC(=O)[C@H](CC(C)C)NC(=O)[C@@H](NC(=O)[C@H](CCC(N)=O)NC(=O)[C@@H]2CCCN2C(=O)[C@H](CC(C)C)NC(=O)[C@H](Cc2ccccc2)NC(=O)[C@H](CC(N)=O)NC(=O)[C@H](C)NC(=O)[C@H](C)NC(=O)[C@H](CC(C)C)NC(=O)CNC(=O)[C@H](C)NC(=O)[C@@H](NC(=O)[C@@H](N)Cc2c[nH]cn2)[C@@H](C)CC)[C@@H](C)CC)CSSC[C@@H](C(N)=O)NC(=O)[C@H](CCCCN)NC(=O)[C@H](CCCNC(=N)N)NC(=O)[C@H](C)NC1=O [B1CTcu5H] (H-HIAGLAANFLPQILCKIARKC-NH2; disulfide 15-21),>100,>100,25,>100,50,90 ± 2.56,>100,25,50
CC[C@H](C)[C@@H]1NC(=O)[C@H](CCCCN)NC(=O)[C@@H](NC(=O)[C@H](CC(C)C)NC(=O)[C@@H](NC(=O)[C@H](CCC(N)=O)NC(=O)[C@@H]2CCCN2C(=O)[C@H](CC(C)C)NC(=O)[C@H](Cc2ccccc2)NC(=O)[C@H](CC(N)=O)NC(=O)[C@H](C)NC(=O)[C@H](C)NC(=O)[C@H](CC(C)C)NC(=O)CNC(=O)[C@H](C)NC(=O)[C@@H](NC(=O)[C@@H](N)CC(C)C)[C@@H](C)CC)[C@@H](C)CC)CSSC[C@@H](C(N)=O)NC(=O)[C@H](CCCCN)NC(=O)[C@H](CCCNC(=N)N)NC(=O)[C@H](C)NC1=O [Cyclic B1CTcu5] (H-LIAGLAANFLPQILCKIARKC-NH2; disulfide 15-21),>100,>100,25,>100,25,75.1 ± 1.46,>100,15,50
